Test results as given in EP0221541A2, “Quinolonecarboxylic acid derivatives and their preparation” (KYORIN PHARMACEUTICAL CO., LTD., priority 1985, dated 1987).
Values after ≈ are worked out from the molar mass of the structure shown.

Assays:
Format in all cases: cell-based
[1] = tested on: Bacillus subtilis PCI 219; assay: MIC, antibacterial spectrum (aerobic bacteria); conditions: Bacillus subtilis, PCI219
[2] = tested on: Staphylococcus aureus 209 P; assay: MIC, antibacterial spectrum (aerobic bacteria); conditions: Staphylococcus aureus, 209P
S. aureus Smith = assay: MIC, antibacterial spectrum (aerobic bacteria); conditions: Staphylococcus aureus
[3] = tested on: S. aureus IID 670 (Terajima); assay: MIC, antibacterial spectrum (aerobic bacteria); conditions: Staphylococcus aureus, IID670
S. epidermidis IID 866 = assay: MIC, antibacterial spectrum (aerobic bacteria); conditions: Staphylococcus epidermidis, IID866
E. faecalis IID 682 = assay: MIC, antibacterial spectrum (aerobic bacteria); conditions: Enterococcus faecalis, IID682
[4] = tested on: Streptococcus pneumoniae IID 552; assay: MIC, antibacterial spectrum (aerobic bacteria); conditions: Streptococcus pneumoniae, IID552
[5] = tested on: S. pyogenes IID 689 (S-8); assay: MIC, antibacterial spectrum (aerobic bacteria); conditions: Streptococcus pyogenes, IID689
S. pyogenes IID 692 = assay: MIC, antibacterial spectrum (aerobic bacteria); conditions: Streptococcus pyogenes, IID692
[6] = tested on: Escherichia coli NIHJ JC-2; assay: MIC, antibacterial spectrum (aerobic bacteria); conditions: NIHJJC2, Escherichia coli NIHJ JC-2, Gram -, 10^6 cells/ml
E. coli ATCC 10536 = assay: MIC, antibacterial spectrum (aerobic bacteria); conditions: Escherichia coli, ATCC10536
E. coli ML 4707 = assay: MIC, antibacterial spectrum (aerobic bacteria); conditions: Escherichia coli, ML4707
[7] = tested on: Proteus vulgaris IFO 3167; assay: MIC, antibacterial spectrum (aerobic bacteria); conditions: Proteus vulgaris, IFO3167
P. mirabilis IID 994 = assay: MIC, antibacterial spectrum (aerobic bacteria); conditions: Proteus mirabilis, IID994
[8] = tested on: Citrobacter freundii IID 976; assay: MIC, antibacterial spectrum (aerobic bacteria); conditions: Citrobacter freundii, IID976
[9] = tested on: Klebsiella pneumoniae KY(GN)6445; assay: MIC, antibacterial spectrum (aerobic bacteria); conditions: Klebsiella pneumoniae
K. pneumoniae 1-220S = assay: MIC, antibacterial spectrum (aerobic bacteria); conditions: Klebsiella pneumoniae, 1220S
[10] = tested on: Salmonella enteritidis IID 604; assay: MIC, antibacterial spectrum (aerobic bacteria); conditions: Salmonella enterica
Shigella sonnei IID 969 = assay: MIC, antibacterial spectrum (aerobic bacteria); conditions: IID969, Shigella sonnei IID 969, Gram -, 10^6 cells/ml
Description: Minimal inhibitory concentrations (MICs) were determined in accordance with the method recommended by Japan Society of Chemotherapy.

[11] = tested on: Yersinia enterocolitica IID 981; assay: MIC, antibacterial spectrum (aerobic bacteria); conditions: Yersinia enterocolitica, IID981
[12] = tested on: Serratia marcescens IID 618; assay: MIC, antibacterial spectrum (aerobic bacteria); conditions: Serratia marcescens, IID618
S. marcescens GN 7577 = assay: MIC, antibacterial spectrum (aerobic bacteria); conditions: Serratia marcescens, GN7577
[13] = tested on: Pseudomonas aeruginosa V-1; assay: MIC, antibacterial spectrum (aerobic bacteria); conditions: Pseudomonas aeruginosa, V1
P. aeruginosa IFO 12689 = assay: MIC, antibacterial spectrum (aerobic bacteria); conditions: Pseudomonas aeruginosa, IFO12689
P. aeruginosa IID 1210 = assay: MIC, antibacterial spectrum (aerobic bacteria); conditions: Pseudomonas aeruginosa, IID1210
P. cepacia GIFU 518 = assay: MIC, antibacterial spectrum (aerobic bacteria); conditions: Burkholderia cepacia, GIFU518
P. maltophilia GIFU 2491 = assay: MIC, antibacterial spectrum (aerobic bacteria); conditions: Stenotrophomonas maltophilia, GIFU2491
[14] = tested on: Acinetobacter anitratus IID 876; assay: MIC, antibacterial spectrum (aerobic bacteria); conditions: Acinetobacter calcoaceticus, IID876
[15] = tested on: Alcaligenes faecalis 0114002; assay: MIC, antibacterial spectrum (aerobic bacteria); conditions: Alcaligenes faecalis 0114002, Gram -, 10^6 cells/ml
[16] = tested on: Bacteroides fragilis GM 7000; assay: MIC, antibacterial spectrum (anaerobic bacteria); conditions: Bacteroides fragilis, GM7000
B. fragilis 0558 = assay: MIC, antibacterial spectrum (anaerobic bacteria); conditions: Bacteroides fragilis, 0558
B. fragilis 25285 = assay: MIC, antibacterial spectrum (anaerobic bacteria); conditions: Bacteroides fragilis, 25285
B. distasonis 8503 = assay: MIC, antibacterial spectrum (anaerobic bacteria); conditions: Parabacteroides distasonis, 8503
[17] = tested on: B. thetaiotaomicron (0661); assay: MIC, antibacterial spectrum (anaerobic bacteria); conditions: Bacteroides thetaiotaomicron
[18] = tested on: Fusobacterium necrophorum S-45; assay: MIC, antibacterial spectrum (anaerobic bacteria); conditions: Fusobacterium necrophorum, S45
[19] = tested on: Eubacterium lentum GAI 5242; assay: MIC, antibacterial spectrum (anaerobic bacteria); conditions: Eggerthella lenta, GAI5242
[20] = tested on: Propionibacterium acens 11828; assay: MIC, antibacterial spectrum (anaerobic bacteria); conditions: Propionibacterium, 11828
[21] = tested on: Peptococcus magnus KY 017; assay: MIC, antibacterial spectrum (anaerobic bacteria); conditions: Finegoldia magna, KY017
C. perfringens KYA 13123 = assay: microbe, parasite or virus in culture; conditions: Clostridium perfringens, KYA13123
C. ramosum = assay: MIC, antibacterial spectrum (anaerobic bacteria); conditions: Thomasclavelia ramosa
[22] = tested on: Peptostreptococcus anaerobius KYA 27337; assay: MIC, antibacterial spectrum (anaerobic bacteria); conditions: Peptostreptococcus anaerobius, KYA27337
Pst. micros UPI 5464-1 = assay: MIC, antibacterial spectrum (anaerobic bacteria); conditions: Parvimonas micra, UPI54641, Pst. micros UPI 5464-1, Gram +, 10^6 cells/ml
[23] = tested on: Veillonella parvula KYA 10790; assay: MIC, antibacterial spectrum (anaerobic bacteria); conditions: KYA10790, Veillonella parvula KYA 10790, Gram -, 10^6 cells/ml

Q: Which MIC [1] does the source give for `O=C(O)c1cn(C2CC2)c2cc(N3CCNCC3)c(F)cc2c1=O` [CPFX, Ciprofloxacin, reference compound] here?
A: The MIC was 0.05 µg/mL (≈ 0.151 µM).

Q: What about the MIC [2] of the same compound?
A: The MIC was 0.2 µg/mL (≈ 0.604 µM).

Q: What about the MIC (S. aureus Smith) of the same compound?
A: Its MIC is 0.39 µg/mL (≈ 1.18 µM).

Q: And the MIC [3]?
A: Its MIC is 0.2 µg/mL (≈ 0.604 µM).

Q: And the MIC (S. epidermidis IID 866)?
A: The MIC was 0.2 µg/mL (≈ 0.604 µM).

Q: And the MIC (E. faecalis IID 682)?
A: Its MIC is 0.78 µg/mL (≈ 2.35 µM).

Q: And the MIC [4]?
A: The MIC was 0.78 µg/mL (≈ 2.35 µM).

Q: And the MIC [5]?
A: Its MIC is 0.78 µg/mL (≈ 2.35 µM).

Q: What about the MIC (S. pyogenes IID 692) of the same compound?
A: The MIC was 0.78 µg/mL (≈ 2.35 µM).

Q: And the MIC [6]?
A: Its MIC is ≤ 0.0063 µg/mL.

Q: And the MIC (E. coli ATCC 10536)?
A: Its MIC is 0.0125 µg/mL (≈ 0.0377 µM).

Q: And the MIC (E. coli ML 4707)?
A: Its MIC is 0.0125 µg/mL (≈ 0.0377 µM).

Q: And the MIC [7]?
A: The MIC was 0.0125 µg/mL (≈ 0.0377 µM).

Q: And the MIC (P. mirabilis IID 994)?
A: Its MIC is 0.0125 µg/mL (≈ 0.0377 µM).

Q: And the MIC [8]?
A: Its MIC is 0.0125 µg/mL (≈ 0.0377 µM).

Q: What about the MIC [9] of the same compound?
A: Its MIC is 0.0125 µg/mL (≈ 0.0377 µM).

Q: And the MIC (K. pneumoniae 1-220S)?
A: The MIC was 0.05 µg/mL (≈ 0.151 µM).

Q: What about the MIC [10] of the same compound?
A: The MIC was 0.0125 µg/mL (≈ 0.0377 µM).

Q: What about the MIC (Shigella sonnei IID 969) of the same compound?
A: The MIC was 0.0125 µg/mL (≈ 0.0377 µM).

Q: And the MIC [11]?
A: Its MIC is 0.05 µg/mL (≈ 0.151 µM).

Q: And the MIC [12]?
A: Its MIC is 0.05 µg/mL (≈ 0.151 µM).

Q: What about the MIC (S. marcescens GN 7577) of the same compound?
A: Its MIC is 0.39 µg/mL (≈ 1.18 µM).

Q: What about the MIC [13] of the same compound?
A: The MIC was 0.05 µg/mL (≈ 0.151 µM).

Q: What about the MIC (P. aeruginosa IFO 12689) of the same compound?
A: The MIC was 0.2 µg/mL (≈ 0.604 µM).

Q: What about the MIC (P. aeruginosa IID 1210) of the same compound?
A: The MIC was 0.2 µg/mL (≈ 0.604 µM).

Q: What about the MIC (P. cepacia GIFU 518) of the same compound?
A: Its MIC is 0.39 µg/mL (≈ 1.18 µM).

Q: And the MIC (P. maltophilia GIFU 2491)?
A: Its MIC is 0.39 µg/mL (≈ 1.18 µM).

Q: And the MIC [14]?
A: The MIC was 0.1 µg/mL (≈ 0.302 µM).

Q: And the MIC [15]?
A: Its MIC is 0.2 µg/mL (≈ 0.604 µM).

Q: And the MIC [16]?
A: The MIC was 6.25 µg/mL (≈ 18.9 µM).

Q: What about the MIC (B. fragilis 0558) of the same compound?
A: The MIC was 3.13 µg/mL (≈ 9.45 µM).

Q: What about the MIC (B. fragilis 25285) of the same compound?
A: Its MIC is 6.25 µg/mL (≈ 18.9 µM).

Q: What about the MIC (B. distasonis 8503) of the same compound?
A: Its MIC is 6.25 µg/mL (≈ 18.9 µM).

Q: And the MIC [17]?
A: The MIC was 12.5 µg/mL (≈ 37.7 µM).

Q: And the MIC [18]?
A: The MIC was 1.56 µg/mL (≈ 4.71 µM).

Q: What about the MIC [19] of the same compound?
A: The MIC was 0.78 µg/mL (≈ 2.35 µM).

Q: What about the MIC [20] of the same compound?
A: The MIC was 12.5 µg/mL (≈ 37.7 µM).

Q: And the MIC [21]?
A: Its MIC is 0.39 µg/mL (≈ 1.18 µM).

Q: What about the MIC (C. perfringens KYA 13123) of the same compound?
A: The MIC was 0.39 µg/mL (≈ 1.18 µM).

Q: What about the MIC (C. ramosum) of the same compound?
A: Its MIC is 12.5 µg/mL (≈ 37.7 µM).

Q: And the MIC [22]?
A: Its MIC is 1.56 µg/mL (≈ 4.71 µM).

Q: What about the MIC (Pst. micros UPI 5464-1) of the same compound?
A: Its MIC is 0.2 µg/mL (≈ 0.604 µM).

Q: What about the MIC [23] of the same compound?
A: The MIC was 0.2 µg/mL (≈ 0.604 µM).
